The results in this text go back to ChEMBL document CHEMBL1201862, “PubChem BioAssay data set” (2004).

Test [1] addresses T1, RNA-binding protein pos-1 (Caenorhabditis elegans, UniProt G5EF15).
T1 sequence (G5EF15 whole entry): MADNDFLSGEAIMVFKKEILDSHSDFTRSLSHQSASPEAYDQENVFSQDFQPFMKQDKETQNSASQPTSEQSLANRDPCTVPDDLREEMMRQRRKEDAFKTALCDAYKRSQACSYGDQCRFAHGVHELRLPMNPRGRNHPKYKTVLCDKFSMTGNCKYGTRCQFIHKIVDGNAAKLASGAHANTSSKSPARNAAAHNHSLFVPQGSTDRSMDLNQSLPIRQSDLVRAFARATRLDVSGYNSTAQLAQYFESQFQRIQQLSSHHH
The experiment in a line: disruptors of C. elegans POS-1 RNA interaction – biochemical, fluorescence polarization, dose response (AID 1964). (In general: Fluorescence polarisation rises when a labelled molecule tumbles more slowly, as on binding a larger partner.)

For test [2], the target named is T2, Protein RecA (Mycobacterium tuberculosis, UniProt P9WHJ3).
T2 sequence (P9WHJ3 whole entry): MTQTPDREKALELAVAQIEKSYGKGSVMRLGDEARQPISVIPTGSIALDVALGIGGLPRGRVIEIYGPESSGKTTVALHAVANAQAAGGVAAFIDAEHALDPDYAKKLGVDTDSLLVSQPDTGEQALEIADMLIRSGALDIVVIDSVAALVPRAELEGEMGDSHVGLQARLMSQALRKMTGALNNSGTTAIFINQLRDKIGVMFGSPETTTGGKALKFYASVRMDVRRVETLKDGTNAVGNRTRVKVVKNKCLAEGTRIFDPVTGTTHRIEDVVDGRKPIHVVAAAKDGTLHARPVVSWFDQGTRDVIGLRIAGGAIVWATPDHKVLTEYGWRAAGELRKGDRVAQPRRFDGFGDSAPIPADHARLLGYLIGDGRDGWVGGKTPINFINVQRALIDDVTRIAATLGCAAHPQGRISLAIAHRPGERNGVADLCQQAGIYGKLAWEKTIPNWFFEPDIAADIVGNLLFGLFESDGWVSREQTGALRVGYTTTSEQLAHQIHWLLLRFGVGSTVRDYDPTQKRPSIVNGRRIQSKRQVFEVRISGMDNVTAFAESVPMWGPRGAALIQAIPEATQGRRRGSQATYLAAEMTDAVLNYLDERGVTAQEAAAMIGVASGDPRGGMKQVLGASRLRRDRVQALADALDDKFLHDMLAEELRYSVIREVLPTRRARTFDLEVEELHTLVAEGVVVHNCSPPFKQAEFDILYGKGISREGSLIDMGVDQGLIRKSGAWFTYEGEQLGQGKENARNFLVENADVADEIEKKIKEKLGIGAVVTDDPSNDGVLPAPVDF
The experiment in a line: Fluorescence Cell-Free Homogeneous Dose Retest to Identify Inhibitors of RecA-Intein Splicing Activity. [Related pubchem assays (depositor defined):AID2097, AID2223, AID489010, AID492950]. In kind it is functional.

The target of test [3] is Serine/threonine-protein phosphatase (Homo sapiens, UniProt Q9BPW0). The experiment in a line: inhibition of protein phosphatase 5 activity – biochemical, fluorescence, dose response (AID 2395).

The source made the active and inactive calls. For most assays here, no stated cut-off is given here; in the data, actives have a measured EC50 and inactives only a lower limit.

Chain of Serine/threonine-protein phosphatase (Q9BPW0 whole entry): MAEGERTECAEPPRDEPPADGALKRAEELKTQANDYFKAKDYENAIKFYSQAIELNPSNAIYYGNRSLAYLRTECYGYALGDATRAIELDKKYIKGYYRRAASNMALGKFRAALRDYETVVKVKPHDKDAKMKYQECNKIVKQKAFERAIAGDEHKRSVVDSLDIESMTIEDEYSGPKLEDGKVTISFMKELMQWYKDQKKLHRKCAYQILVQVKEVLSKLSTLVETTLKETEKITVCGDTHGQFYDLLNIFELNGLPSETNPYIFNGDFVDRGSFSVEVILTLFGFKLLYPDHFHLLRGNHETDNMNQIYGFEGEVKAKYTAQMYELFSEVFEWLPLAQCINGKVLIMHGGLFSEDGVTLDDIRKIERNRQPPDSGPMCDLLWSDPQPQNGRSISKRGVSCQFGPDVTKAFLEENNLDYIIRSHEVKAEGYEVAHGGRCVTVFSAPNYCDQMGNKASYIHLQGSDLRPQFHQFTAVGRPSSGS

The EC50 is the concentration at which the effect is half-maximal. Consider `Cc1cc2nc3ccc(N(C)C)cc3[s+]c2cc1N` [TOLONIUM CHLORIDE], for which the EC50 in test [1] is > 300 µM (not active); in test [2], 28 µM (active).

As usually defined, the IC50 is the midpoint of a concentration-inhibition curve. `CCCOc1cc2c(C#N)c(N3CCCC3)nc(N)c2c(N)n1`: in test [3], the IC50 was 9.93 µM (active).
